± gives the standard deviation of the averaged measurements.
Experiments:
Experiment in all cases: level (log10 ratio to DMSO vehicle control); higher = higher biomarker level / cell amount than vehicle control
[1] = compound: O=C(O)C(F)(OC(F)(F)C(F)(F)C(F)(F)F)C(F)(F)F [Ammonium perfluoro-2-methyl-3-oxahexanoate] (in Water)
Procedure: (§1)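 BioMAP Diversity Plus panel of 12 human primary cell co-culture systems (3C, 4H, LPS, SAg, BT, BF4T, BE3C, CASM3C, HDF3CGF, KF3CT, MyoF, Mphg). Compounds were added 1 h before stimulation and left for 24 h (MyoF 48 h; BT 72 h for soluble read-outs or 6 d for IgG). Biomarkers were read by ELISA, cytotoxicity by SRB, PBMC viability and proliferation by Alamar Blue. Each well value was divided by the mean of 8 DMSO control wells on the same plate and log10 transformed; duplicate blinded samples were tested at 4 concentrations.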

[2] = compound: NS(=O)(=O)C(F)(F)C(F)(F)C(F)(F)C(F)(F)C(F)(F)C(F)(F)C(F)(F)C(F)(F)F [Perfluorooctanesulfonamide] (in DMSO)
Procedure: as §1

[3] = compound: C[C@@H]1C[C@H]2[C@@H]3CCC4=CC(=O)C=C[C@]4(C)[C@@]3(F)[C@@H](O)C[C@]2(C)[C@@]1(O)C(=O)COP(=O)(O)O [Dexamethasone sodium phosphate] (in DMSO)
Procedure: as §1

[4] = compound: O=C(O)C=C(C(F)(F)F)C(F)(F)F [3,3-Bis(trifluoromethyl)-2-propenoic acid] (in DMSO)
Procedure: as §1

[5] = compound: OCC(F)(F)C(F)(F)C(F)(F)C(F)F [1H,1H,5H-Perfluoropentanol] (in DMSO)
Procedure: as §1

[6] = compound: O=C(O)C(F)(F)C(F)(F)C(F)(F)OC(F)(F)F [Perfluoro(4-methoxybutanoic) acid] (in DMSO)
Procedure: as §1

Test System	level (log10) ([1]; 6700 nM)	level (log10) ([1]; 20000 nM)	level (log10) ([1]; 60000 nM)	level (log10) ([2]; 6700 nM)	level (log10) ([2]; 20000 nM)	level (log10) ([3]; 1500 nM)	level (log10) ([3]; 4400 nM)	level (log10) ([3]; 13000 nM)	level (log10) ([3]; 40000 nM)	level (log10) ([4]; 6700 nM)	level (log10) ([4]; 20000 nM)	level (log10) ([4]; 60000 nM)	level (log10) ([5]; 6700 nM)	level (log10) ([5]; 20000 nM)	level (log10) ([5]; 60000 nM)	level (log10) ([6]; 6700 nM)	level (log10) ([6]; 20000 nM)	level (log10) ([6]; 60000 nM)
HDF3CGF:CXCL9/MIG	-0.011 ± 0.028	-0.02 ± 0.014	-0.016 ± 0.064	-0.203 ± 0.011	-0.761 ± 0.11	0.042 ± 0.037	0.067 ± 0.018	0.0555 ± 0.029	0.0435 ± 0.042	-0.006 ± 0.0028	-0.0075 ± 0.013	-0.0175 ± 0.015	0.0035 ± 0.0021	0.0025 ± 0.025	-0.0105 ± 0.022	-0.0085 ± 0.0035	0.0025 ± 0.0064	-0.005 ± 0.037
HDF3CGF:CXCL10/IP-10	0.002 ± 0.013	-0.0085 ± 0.00071	-0.0025 ± 0.012	-0.216 ± 0.011	-0.893 ± 0.047	0.034 ± 0.025	0.0615 ± 0.052	0.06 ± 0.057	0.009 ± 0.072	-0.0175 ± 0.005	-0.0445 ± 0.005	-0.04 ± 0.025	-0.0255 ± 0.019	0.0095 ± 0.0021	0.005 ± 0.018	0.0145 ± 0.016	-0.004 ± 0.0042	-0.004 ± 0.0099
HDF3CGF:CXCL11/I-TAC	0.002 ± 0.0057	-0.0045 ± 0.019	0.002 ± 0.0099	-0.111 ± 0.013	-0.492 ± 0.028	0.0425 ± 0.00071	0.079 ± 0.082	0.0905 ± 0.012	0.0355 ± 0.087	-0.038 ± 0.011	-0.0555 ± 0.035	-0.033 ± 0.054	-0.0425 ± 0.028	-0.023 ± 0.093	0.004 ± 0.051	-0.0035 ± 0.005	0.0045 ± 0.0078	-0.0075 ± 0.0035
HDF3CGF:Collagen I	-0.029 ± 0.031	0.0015 ± 0.005	-0.0095 ± 0.0092	0.08 ± 0.037	-0.0535 ± 0.046	-0.0005 ± 0.1	-0.016 ± 0.047	-0.0155 ± 0.023	0.0075 ± 0.005	-0.031 ± 0.0028	-0.041 ± 0.02	-0.03 ± 0.038	-0.0375 ± 0.039	-0.0305 ± 0.037	0.0585 ± 0.021	-0.0125 ± 0.015	0.0115 ± 0.049	0.033 ± 0.061
HDF3CGF:Collagen III	-0.0055 ± 0.0064	-0.015 ± 0.041	-0.0705 ± 0.028	-0.0345 ± 0.012	-0.449 ± 0.019	-0.0625 ± 0.12	-0.048 ± 0.052	-0.079 ± 0.05	-0.0675 ± 0.056	-0.0905 ± 0.012	-0.0985 ± 0.029	-0.0635 ± 0.069	-0.0215 ± 0.036	-0.0135 ± 0.019	0.037 ± 0.027	0.0075 ± 0.033	0 ± 0.0099	-0.007 ± 0.021
HDF3CGF:EGFR	-0.017 ± 0.014	0.0145 ± 0.026	0.0535 ± 0.005	-0.016 ± 0.014	-0.171 ± 0.016	-0.0145 ± 0.086	-0.043 ± 0.071	-0.039 ± 0.076	0.019 ± 0.014	-0.02 ± 0.041	-0.039 ± 0.05	-0.0145 ± 0.0035	-0.0465 ± 0.033	-0.0025 ± 0.028	0.022 ± 0.054	-0.002 ± 0.072	0.02 ± 0.055	0.0015 ± 0.053
HDF3CGF:M-CSF	-0.0345 ± 0.00071	-0.0245 ± 0.013	-0.0595 ± 0.035	-0.0605 ± 0.012	-0.507 ± 0.07	0.0645 ± 0.053	0.049 ± 0.096	0.0505 ± 0.094	0.0175 ± 0.13	-0.0595 ± 0.0078	-0.072 ± 0.042	-0.051 ± 0.014	-0.0405 ± 0.067	-0.034 ± 0.071	-0.0205 ± 0.053	-0.0135 ± 0.0035	-0.0075 ± 0.005	0.0115 ± 0.039
HDF3CGF:MMP-1	0.0035 ± 0.016	0.011	0.008 ± 0.0085	0.0145 ± 0.026	-0.206 ± 0.096	-0.0695 ± 0.011	-0.065 ± 0.016	-0.098 ± 0.018	-0.081 ± 0.042	-0.015 ± 0.0014	-0.013 ± 0.017	-0.001 ± 0.0099	0.0075 ± 0.005	0.007 ± 0.0085	0.0105 ± 0.022	-0.0015 ± 0.015	-0.015 ± 0.0028	-0.0235 ± 0.0021
HDF3CGF:PAI-I	-0.0825 ± 0.052	-0.0995 ± 0.013	-0.051 ± 0.054	0.005 ± 0.033	-0.45 ± 0.26	0.091 ± 0.011	0.0875 ± 0.0035	0.072 ± 0.0042	0.039 ± 0.0099	-0.0265 ± 0.015	-0.069 ± 0.0099	-0.153 ± 0.025	-0.111 ± 0.12	-0.047 ± 0.16	-0.0365 ± 0.096	-0.009 ± 0.0042	-0.0135 ± 0.0078	-0.001 ± 0.014
HDF3CGF:Proliferation 72hr	0.0575 ± 0.057	0.0635 ± 0.066	-0.0255 ± 0.056	0.0105 ± 0.036	-0.58 ± 0.15	0.0165 ± 0.011	-0.0255 ± 0.047	0.0645 ± 0.015	0.095 ± 0.064	-0.0325 ± 0.021	-0.086 ± 0.069	-0.24 ± 0.066	-0.023 ± 0.058	0.035 ± 0.024	0.0065 ± 0.025	-0.003 ± 0.047	0.0295 ± 0.0021	-0.003 ± 0.031
HDF3CGF:SRB	-0.033 ± 0.02	-0.0325 ± 0.0021	-0.0175 ± 0.011	-0.028 ± 0.055	0.0615 ± 0.019	0.0165 ± 0.0064	0.0285 ± 0.025	0.0515 ± 0.03	0.0415 ± 0.07	-0.014 ± 0.028	0.0125 ± 0.021	-0.022 ± 0.02	-0.0275 ± 0.0064	-0.0025 ± 0.03	-0.0015 ± 0.037	0.006 ± 0.0071	0.011 ± 0.047	0.0125 ± 0.04
HDF3CGF:TIMP-1	0.025 ± 0.0028	0.014 ± 0.024	-0.0135 ± 0.0064	0.065 ± 0.068	-0.138 ± 0.15	-0.0755 ± 0.04	-0.0735 ± 0.053	-0.112 ± 0.07	-0.175 ± 0.081	-0.0935 ± 0.049	-0.125 ± 0.065	-0.0675 ± 0.013	-0.012 ± 0.031	-0.0155 ± 0.025	0.006 ± 0.027	-0.0005 ± 0.035	0.0105 ± 0.067	0.0195 ± 0.042
HDF3CGF:TIMP-2	0.0405 ± 0.07	0.0435 ± 0.013	-0.0185 ± 0.079	-0.0545 ± 0.0021	-0.102 ± 0.044	0.0475 ± 0.028	0.062 ± 0.081	0.061 ± 0.065	0.0585 ± 0.0021	-0.0175 ± 0.013	-0.0595 ± 0.028	-0.082 ± 0.03	-0.0525 ± 0.086	-0.0265 ± 0.067	-0.0175 ± 0.087	0.019 ± 0.025	0.029 ± 0.055	0.005 ± 0.057
KF3CT:CCL2/MCP-1	0.086 ± 0.0057	0.088 ± 0.023	0.0775 ± 0.018	0.025 ± 0.016	0.116 ± 0.037	-0.0015 ± 0.08	-0.0565 ± 0.049	-0.0105 ± 0.0035	-0.033 ± 0.016	-0.0055 ± 0.036	-0.015 ± 0.014	-0.028 ± 0.052	0.0055 ± 0.026	-0.0495 ± 0.087	0.007 ± 0.13	-0.006 ± 0.011	0.0105 ± 0.0021	0.0375 ± 0.07
KF3CT:CD54/ICAM-1	0.022 ± 0.0099	0.029 ± 0.0071	0.017 ± 0.0057	0.0155 ± 0.023	-0.0235 ± 0.028	-0.0125 ± 0.0078	0.01 ± 0.018	-0.012 ± 0.011	-0.003 ± 0.013	-0.007 ± 0.0057	0.008 ± 0.0071	0.022 ± 0.016	-0.002 ± 0.0071	-0.003 ± 0.023	0.004	-0.005 ± 0.024	-0.017	-0.002 ± 0.013
KF3CT:CXCL8/IL-8	0.0175 ± 0.036	0.0135 ± 0.00071	0.0165 ± 0.0092	-0.0135 ± 0.021	-0.0525 ± 0.018	-0.044 ± 0.05	-0.05 ± 0.02	-0.045 ± 0.021	-0.045 ± 0.0028	-0.004 ± 0.0028	0.0025 ± 0.0092	0.0245 ± 0.016	0.0155 ± 0.016	0.0205 ± 0.021	0.0415 ± 0.049	0.006 ± 0.017	0.012 ± 0.0085	0.014 ± 0.0099

Source: the supplement of paper PMC10331698
